Assays:
[1] = molecular target: T1, M3 muscarinic receptor subtype (Homo sapiens, UniProt P20309); test: Radioligand binding assay ([3H]-NMS displacement); conditions: CHO cell membranes, [3H]-NMS at 1 nM; tested in this or a similar assay
T1 construct: expressed in transfected cells
Description: CHO cell lines stably expressing cloned human hM1, hM2, hM3 and hM4 muscarinic receptor subtypes, respectively, were grown to near confluency in medium consisting of HAM's F-12 supplemented with 10% FBS and 250 μg/mL Geneticin. The cells were grown in a 5% CO2, 37° C. incubator and lifted with 2 mM EDTA in dPBS. Cells were collected by 5 minute centrifugation at 650×g, and cell pellets were either stored frozen at −80° C. or membranes were prepared immediately. For membrane preparation, cell pellets were resuspended in lysis buffer and homogenized with a Polytron PT-2100 tissue disrupter (Kinematica AG; 20 seconds×2 bursts). Crude membranes were centrifuged at 40,000×g for 15 minutes at 4° C. […] The protein concentration of the membrane suspension was determined by the method described in Lowry, O. et al., Journal of Biochemistry 193:265 (1951). […]
Radioligand binding assays were performed in 96-well microtiter plates in a total assay volume of 100 μL. […] Filter plates were rinsed three times with wash buffer (10 mM HEPES) to remove unbound radioactivity. […] The plates were then counted in a PerkinElmer Topcount liquid scintillation counter (PerkinElmer Inc., Wellesley, Mass.). Binding data were analyzed by nonlinear regression analysis with the GraphPad Prism Software package (GraphPad Software, Inc., San Diego, Calif.) using the one-site competition model. […]

hM3 receptor = molecular target: T2, hM3 receptor (Homo sapiens, UniProt P20309); test: Blockade of agonist-mediated calcium release via FLIPR; format: cell-based; conditions: CHO cells stably expressing the hM3 receptor; this or a similar assay
T2 construct: expressed in transfected cells
T2 sequence (P20309 whole entry): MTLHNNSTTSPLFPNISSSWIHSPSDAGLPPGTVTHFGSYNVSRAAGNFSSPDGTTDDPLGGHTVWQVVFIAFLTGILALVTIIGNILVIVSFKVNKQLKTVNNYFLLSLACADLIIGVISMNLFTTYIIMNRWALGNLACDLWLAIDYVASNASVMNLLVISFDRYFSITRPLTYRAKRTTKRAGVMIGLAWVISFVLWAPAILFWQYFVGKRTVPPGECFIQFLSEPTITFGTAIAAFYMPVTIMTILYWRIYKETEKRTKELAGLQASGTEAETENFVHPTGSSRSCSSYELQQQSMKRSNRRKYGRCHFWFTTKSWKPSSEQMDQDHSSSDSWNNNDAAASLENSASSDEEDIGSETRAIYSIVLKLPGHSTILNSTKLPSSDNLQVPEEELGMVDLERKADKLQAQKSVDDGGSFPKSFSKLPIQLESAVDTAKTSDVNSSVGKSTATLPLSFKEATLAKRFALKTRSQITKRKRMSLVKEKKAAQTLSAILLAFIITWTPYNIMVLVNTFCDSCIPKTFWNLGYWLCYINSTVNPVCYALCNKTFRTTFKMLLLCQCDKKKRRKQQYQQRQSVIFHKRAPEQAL
Text: Muscarinic receptor subtypes (M1, M3 and M5 receptors), which couple to Gq proteins, activate the phospholipase C (PLC) pathway upon agonist binding to the receptor. As a result, activated PLC hydrolyzes phosphatyl inositol diphosphate (PIP2) to diacylglycerol (DAG) and […] (IP3), which in turn generates calcium release from intracellular stores, i.e., endoplasmic and sarcoplasmic reticulum. The FLIPR (Molecular Devices, Sunnyvale, Calif.) assay capitalizes on this increase in intracellular calcium by using a calcium sensitive dye (Fluo-4AM, Molecular Probes, Eugene, Oreg.) that fluoresces when free calcium binds. This fluorescence event is measured in real time by the FLIPR, which detects the change in fluorescence from a monolayer of cells cloned with human M1 and M3, and chimpanzee M5 receptors. Antagonist potency can be determined by the ability of antagonists to inhibit agonist-mediated increases in intracellular calcium. […]
To determine antagonist potency, the dose-dependent stimulation of intracellular Ca^2+ release for oxotremorine is first determined so that antagonist potency can later be measured against oxotremorine stimulation at an EC90 concentration. […]
The change of fluorescence is expressed as maximum fluorescence minus baseline fluorescence for each well. […]

T1 sequence (P20309 whole entry): as above

**Q.** For CN(CCN1CCC(OC(=O)Nc2ccccc2-c2ccccc2)CC1)C(=O)c1ccc(CN2CCC(C(N)=O)CC2)cc1 [compound of formula I, biphenyl-2-ylcarbamic acid 1-(2-{[4-(4-carbamoylpiperidin-1-ylmethyl)benzoyl]methylamino}ethyl)piperidin-4-yl ester], which Ki [1] is on record?
**A.** < 5 nM

**Q.** And the Ki (hM3 receptor)?
**A.** < 5 nM

Source: patent US11390603B2, “Crystalline forms of a biphenyl compound” (THERAVANCE BIOPHARMA R&D IP, LLC, priority 2005, dated 2022)
